# Results as given in article PMC9662162 (Insect biochemistry and molecular biology, 2022).
# Where two headings read alike, the source gives them in different places.
# Experiments:
# AnDar-D7L2 = AnDar-D7L2 (Anopheles darlingi, UniProt B6DDQ8); experiment: biochemical; format: binding; conditions: for fold difference in binding tightness, serotonin vs tryptamine: ratio of KD values
# An. gambiae D7L3 = An. gambiae D7L3 (Anopheles gambiae, UniProt A0A1S4HE90); experiment: biochemical; format: binding
# AnAtr-D7L1 = biological target: T1, AnAtr-D7L1 (Anopheles atroparvus, UniProt A0A182IRF8); experiment: ITC ligand binding to recombinant AnAtr-D7L1; conditions: for binding observed by ITC (in words): 30°C, 4 μM protein, 40 μM ligand
# T1 sequence (A0A182IRF8 24-316): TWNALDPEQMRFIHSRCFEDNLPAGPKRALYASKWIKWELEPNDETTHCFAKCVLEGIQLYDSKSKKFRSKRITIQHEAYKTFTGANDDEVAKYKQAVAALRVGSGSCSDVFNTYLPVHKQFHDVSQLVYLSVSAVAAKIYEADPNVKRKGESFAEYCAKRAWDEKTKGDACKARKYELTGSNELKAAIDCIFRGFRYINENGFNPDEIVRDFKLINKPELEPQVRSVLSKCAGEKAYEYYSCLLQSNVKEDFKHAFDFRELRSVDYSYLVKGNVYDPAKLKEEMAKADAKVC
# AeD7S1 = biological target: T2, AeD7S1 (Aedes aegypti, UniProt Q8T9T4); experiment: ITC serotonin binding to recombinant AeD7S1; conditions: 30°C, 4 μM protein, 40 μM serotonin
# T2 sequence (Q8T9T4 22-148): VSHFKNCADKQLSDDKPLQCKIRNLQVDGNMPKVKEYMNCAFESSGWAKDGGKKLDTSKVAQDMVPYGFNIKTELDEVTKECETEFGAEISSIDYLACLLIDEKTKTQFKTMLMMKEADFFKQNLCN
# AnSt-D7L1 = conditions: ref Alvarenga et al., 2010; cited from earlier work
# D7CQS1 = biological target: T3, D7CQS1 (Culex quinquefasciatus, UniProt Q6TS00); experiment: ITC serotonin binding to recombinant D7CQS1; conditions: 30°C, 4 μM protein, 40 μM serotonin
# T3 sequence (Q6TS00 19-161): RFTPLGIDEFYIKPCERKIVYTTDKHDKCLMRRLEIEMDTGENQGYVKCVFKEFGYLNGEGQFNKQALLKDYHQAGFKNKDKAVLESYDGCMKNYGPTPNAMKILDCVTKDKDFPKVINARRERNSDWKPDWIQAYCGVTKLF
# Platelet-rich plasma = experiment: Platelet aggregation assay in platelet-rich plasma; format: cell-based, human; conditions: protein 0.6, 2 and 6 μM
# Sequence of AnDar-D7L2 (B6DDQ8 21-317 limits assumed): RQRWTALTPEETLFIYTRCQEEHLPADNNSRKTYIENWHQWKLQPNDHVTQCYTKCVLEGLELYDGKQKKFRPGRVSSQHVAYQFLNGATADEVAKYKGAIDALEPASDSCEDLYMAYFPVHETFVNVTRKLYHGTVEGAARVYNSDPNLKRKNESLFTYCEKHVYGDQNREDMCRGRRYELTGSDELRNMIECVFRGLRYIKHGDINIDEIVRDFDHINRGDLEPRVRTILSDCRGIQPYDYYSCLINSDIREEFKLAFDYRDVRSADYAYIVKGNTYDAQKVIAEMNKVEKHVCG
# Sequence of An. gambiae D7L3 (A0A1S4HE90 27-354 limits assumed): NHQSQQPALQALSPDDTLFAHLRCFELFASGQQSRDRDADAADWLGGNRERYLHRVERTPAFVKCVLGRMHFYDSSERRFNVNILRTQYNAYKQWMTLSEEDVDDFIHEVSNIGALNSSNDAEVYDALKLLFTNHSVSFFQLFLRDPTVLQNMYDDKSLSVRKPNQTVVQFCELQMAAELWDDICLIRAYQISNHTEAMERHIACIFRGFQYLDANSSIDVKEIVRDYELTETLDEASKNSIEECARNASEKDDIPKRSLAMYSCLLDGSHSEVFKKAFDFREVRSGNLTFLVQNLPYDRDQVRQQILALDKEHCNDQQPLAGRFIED
compound,measurement,setting,value
CNC[C@H](O)c1ccc(O)c(O)c1 [epinephrine],binding observed by ITC (in words),AnDar-D7L2,No detectable binding
CCCCC/C=C\C\C=C/C=C/C=C/[C@@H](SC[C@H](NC(=O)CC[C@H](N)C(=O)O)C(=O)NCC(=O)O)[C@@H](O)CCCC(=O)O [LTC4],binding observed by ITC (in words),AnDar-D7L2,high affinity
"NC[C@H](O)c1ccc(O)c(O)c1 [norepinephrine, L(+)-norepinephrine]",binding observed by ITC (in words),"AnDar-D7L2; ITC, 30°C",measurable
same,Kd,An. gambiae D7L3,2530 nM
NCCc1ccc(O)c(O)c1 [dopamine],binding observed by ITC (in words),AnDar-D7L2,measurable
NCCc1c[nH]c2ccccc12 [tryptamine],Kd,AnDar-D7L2,518 nM
same,"fold difference in binding tightness, serotonin vs tryptamine",AnDar-D7L2; ITC,30 fold
same,binding observed by ITC (in words),AnAtr-D7L1,equally high affinity
NCCc1c[nH]c2ccc(O)cc12 [serotonin],Kd,AnDar-D7L2,17 nM
same,"fold difference in binding tightness, serotonin vs tryptamine",AnDar-D7L2; ITC,30 fold
same,Kd,AnAtr-D7L1,~3 nM
same,Kd,An. gambiae D7L3,22 nM
same,serotonin binding by ITC (in words),AeD7S1,Lack of serotonin binding
same,binding (in words),AnSt-D7L1,does not bind
same,serotonin binding by ITC (in words),D7CQS1,Lack of serotonin binding
NCCc1c[nH]cn1 [histamine],binding observed by ITC (in words),AnDar-D7L2,No detectable binding
same,Kd,An. gambiae D7L3,1530 nM
CCCCC/C=C\C\C=C/C=C/C=C/[C@@H](SC[C@H](N)C(=O)O)[C@@H](O)CCCC(=O)O [LTE4],binding observed by ITC (in words),AnDar-D7L2,high affinity
Nc1ncnc2c1ncn2[C@@H]1O[C@H](COP(=O)(O)OP(=O)(O)O)[C@@H](O)[C@H]1O [ADP],binding observed by ITC (in words),"AnDar-D7L2; ITC, 30°C",inability to bind
same,binding observed by ITC (in words),"An. gambiae D7L3; ITC, 30°C, 4 μM protein, 40 μM ligand",none
CCCCC/C=C\C[C@@H](O)/C=C/C=C/C=C\[C@@H](O)CCCC(=O)O [LTB4],binding observed by ITC (in words),AnDar-D7L2,unable to bind
same,binding observed by ITC (in words),AnAtr-D7L1,No binding was detected
CCCCC[C@H](O)/C=C/C=C\C/C=C\C/C=C\CCCC(=O)O [15-HETE],binding observed by ITC (in words),AnAtr-D7L1,No binding was detected
CCCCC/C=C\C\C=C/C=C/C=C/[C@@H](SC[C@H](N)C(=O)NCC(=O)O)[C@@H](O)CCCC(=O)O [LTD4],binding observed by ITC (in words),AnDar-D7L2,high affinity
CCCCC[C@H](O)/C=C/[C@@H]1[C@@H](C/C=C\CCCC(=O)O)[C@H]2CO[C@@H]1C2 [U46619],binding observed by ITC (in words),AnDar-D7L2,high affinity
same,binding observed by ITC (in words),AnAtr-D7L1,does not bind
same,binding (in words),AnSt-D7L1,ability to bind
AnDar-D7L2: recombinant two-domain D7 long form salivary protein from Anopheles darlingi (EU934268.1),effect on ADP-induced platelet aggregation,Platelet-rich plasma; agonist ADP,did not inhibit
same,effect on platelet aggregation induced by U46619,Platelet-rich plasma; agonist U46619,inhibits
same,effect on platelet aggregation induced by arachidonic acid (AA),Platelet-rich plasma; agonist arachidonic acid,inhibits
same,effect on epinephrine-induced platelet aggregation,Platelet-rich plasma; agonist epinephrine,did not inhibit
same,effect on platelet aggregation induced by collagen,"Platelet-rich plasma; collagen at low concentrations, 1 min preincubation",inhibits
CCCCC[C@H](O)/C=C/[C@@H]1[C@@H](C/C=C\CCCC(=O)O)[C@@H](O)C[C@H]1O [PGF2α],binding observed by ITC (in words),AnAtr-D7L1,No binding was detected
"NCC(O)c1ccc(O)cc1 (racemic) [octopamine, (±)-octopamine]",binding observed by ITC (in words),"AnDar-D7L2; ITC, 30°C",measurable
